The values below come from US7807368B2, “Cyclin-dependent kinase inhibitors as targets for opiod growth factor treatment” (priority 2006, dated 2010).

Holding throughout (assay type): cell-based, human
The test system of assay [1] is SCC-1 cells. In words: siRNA knockdown of OGFr, growth of SCC-1 cells. Particulars: 10^-6 M; for depression of growth: 96 h. How it is done: siRNA knockdown of OGFr. […] For transfection, 5×10^4 cells per well were seeded in 6-well plates containing 1 ml of serum-containing media without antibiotics. In each well, 20 nM OGFr-siRNA or control siRNA solutions in serum-free media were added. Cells were incubated for 4 h at 37° C. prior to the addition of OGF. Cultures were incubated an additional 20 h, and then 1 ml fresh complete media either lacking or containing OGF was added. […] Two independent experiments were conducted. The control siRNAs were purchased from Ambion.

The test system of assay [2] is SCC-1 cells. Kind of assay: Flow cytometry cell cycle distribution, synchronized SCC-1 cells. Particulars: 10^-6 M OGF, 14 h. The protocol: For flow cytometry, cells were synchronized with 0.5 μg/ml nocodazole (Sigma-Aldrich) for 24 h, followed by three washes with complete media. Cells were released from growth arrest by addition of complete media or OGF-supplemented media. Synchronized cells were treated with 10^−6 M OGF for 14 h, harvested with 0.25% trypsin-EDTA (Mediatech, Herndon, Va.) and fixed with 70% ethanol at −20° C. for up to 7 days before DNA analysis. DNA content was obtained by incubating cells in PBS containing propidium iodide (0.1 mg/ml) and RNase A (0.02 mg/ml) for 15 min at 22° C. Fluorescence was measured and analyzed using a BD Biosciences FACScan flow cytometer (San Diego, Calif.) and Modfit Software (Topsham, Me.).

The test system of assay [3] is Cdk4 kinase activity. In words: Immunoprecipitation and Rb kinase assay (Cdk4 kinase activity) in SCC-1 cells. The protocol: To quantify expression levels or kinase activity, the optical density of each band was determined by densitometry and analyzed by QuickOne (Bio-Rad Laboratories). Each value was normalized to β-actin from the same blot. To report the changes due to OGF treatment, the fold increase was calculated by dividing the normalized value from the OGF treated samples by the normalized value of control samples at each time point; thus, increases due to OGF have values greater than one, and decreases due to OGF have values less than one.
Immunoprecipitation and Rb kinase assay. For immunoprecipitating protein complexes, cell extracts were prepared as follows: 2×10^6 cells per sample were rinsed in cold PBS followed by lysis in 100 μl NP40 immunoprecipitation buffer (1% NP-40, 50 mM Tris-HCI (pH7.4), 150 mM NaCl, 1 mM EDTA, 10 mM NaF, 2 μg/ml antipain, 1 mM sodium orthovanidate, 2 μg/ml aprotinin, 2 μg/ml leupeptin, 1 μg/ml pepstatin A, 1 μM okadaic acid, 1 mM PMSF, 1 mM dithiothreitol (DTT). For each immunoprecipitation reaction mixture, a total of 500 μg of protein extract was used. The lysates were then subjected to immunoprecipitation using 10 μl polyclonal antibody against Cdk4 prebound with agarose conjugate (sc-601 AC, Santa Cruz) for 60 min at 4° C. Then immunoprecipitates were mixed with kinase buffer (25 mM HEPES, pH7.4, 10 mM MgCl2), 5 μCi γ^32P-ATP, and Rb(769-921) (sc-4112, Santa Cruz) as the substrate for Cdk4. After incubation for 30 min at 30° C., with occasional mixing, the reaction was stopped by the addition of 2× sample loading buffer (0.5 M Tris-HCl, pH 6.8, 4.4% (w/v) SDS, 20% (v/v) glycerol, 2% (v/v) 2-mercaptoethanol, and bromophenol blue in distilled/deionized water). Proteins in the reaction mixture were separated by a 10% SDS-PAGE gel. The Cdk4 kinase activity pattern was visualized by autoradiography of phosphorylated Rb.

For assay [4], the system named is p21. In words: Western blot of p21 in PANC-1 cells. Particulars: synchronized PANC-1 cells, 6 hours. How it is done:
Human pancreatic cancer cell lines BxPC-3, PANC-1, and Capan-2 were obtained from the American Type Culture Collection (Manassas, Va.), and cultured in RPMI, Dulbecco's Modified Medium, or McCoy's 5A medium, respectively. All media were supplemented with 10% fetal bovine serum, 1.2% sodium bicarbonate, and 0.25% antibiotics (5000 units/ml penicillin, 5 μg/ml streptomycin and 10 μg/ml neomycin). OGF was purchased from Sigma-Aldrich (St. Louis, Mo.), dissolved in sterile water, and used at a final concentration of 10^−6 M.
Synchronized cells (2×10^6) from each treatment were solubilized in 200 μl RIPA buffer (1×PBS, 10 μM IGEPAL, 1 mg/ml SDS, 5 mg/ml deoxycholic acid), containing protease and phosphatase inhibitors (2 μg/ml aprotinin, 3 mg/ml phenylmethyl sulfonyl fluoride, 1 mM sodium orthovanidate, 1 μM okadaic acid). Total protein concentrations were measured using the DC protein assay kit (Bio-Rad Laboratories, Hercules, Calif.). Equal amounts of protein (40 μg) were subjected to 10% SDS-PAGE followed by transfer of proteins onto polyvinylidene difluoride (Millipore, Billerica, Mass.) using standard protocols.
The p21-targeted siRNAs were obtained from Santa Cruz Biotechnology, and negative control siRNAs were purchased from Ambion (Ambion, Inc., Austin, Tex.). For transfection, 2×10^5 cells per well were seeded in 6-well plates containing 1 ml of media without antibiotics. […]
For orientation: Immunoblotting shows a protein as a band on a membrane.

Regarding [Met^5]-enkephalin [OGF], in assay [1] (SCC-1 cells subjected to OGFr-siRNA), the “effect on growth of OGFr-siRNA cultures” value was “no further effects”. The depression of growth in assay [1] (control siRNA-treated SCC-1 cells) is recorded as 46%. The depression of growth in assay [1] (wt SCC-1 cells) is given as 29%. Also, in assay [2], the “cells in the G2/M phase” value came to 22.7%, the “cells in the S phase” value turned out to be 42.7% and the “percentage of cells in the G0/G1 phase” value was found to be 34.6%. For the same substance, the “Cdk4 kinase activity vs control cells at each respective time” value in assay [3] (OGF for 3, 6, 9, or 12 h (FIG. 1)) is given as “differed significantly”. For the same substance, the “Cdk4 kinase activity relative to controls” value in assay [3] (OGF for 6, 9, and 12 h) is “marked decrease”. Also, the “Cdk4 kinase activity relative to controls” value in assay [3] (OGF for 3 h) is “transient increase”. In addition, the “p21 expression relative to control cells” value in assay [4] is “increased p21 expression”.
